Source: PubChem BioAssay AID256 (DTP/NCI, 2004)
“And” between values parts separate entries of the source, which are not always exact repeats. Equal values may be shown once. Toxic doses and inconclusive results are not listed. How the source made its calls: active means survival T/C of 150% or more; inactive means T/C below 125% in these data. Residues, ends and D or L forms follow the SMILES beside them.

System: CD2F1 mice, L1210 leukemia ip, survival T/C
Assay: NCI In Vivo Anticancer Drug Screen. Data for tumor model L1210 Leukemia (intraperitoneal) in CD2F1 (CDF1) mice
Settings: higher = longer survival
Method in brief: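 Transplantable tumor in mice; compound-treated vs vehicle-treated groups. Read-out = treated/control ratio of the measured endpoint.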

[1] = endpoint: mean survival time, dose: 100.0 mg/kg/injection, schedule: Q04DX003 (ip), vehicle: saline with Tween-80
[2] = endpoint: mean survival time, dose: 200.0 mg/kg/injection, schedule: Q04DX003 (ip), vehicle: saline with Tween-80
[3] = endpoint: mean survival time, dose: 400.0 mg/kg/injection, schedule: Q04DX003 (ip), vehicle: saline with Tween-80
[4] = endpoint: mean survival time, dose: 100.0 mg/kg/injection, schedule: Q01DX001 (ip), vehicle: saline
[5] = endpoint: mean survival time, dose: 100.0 mg/kg/injection, schedule: Q04DX003 (ip), vehicle: saline
[6] = endpoint: mean survival time, dose: 200.0 mg/kg/injection, schedule: Q01DX001 (ip), vehicle: saline
[7] = endpoint: mean survival time, dose: 400.0 mg/kg/injection, schedule: Q01DX001 (ip), vehicle: saline
[8] = endpoint: mean survival time, dose: 50.0 mg/kg/injection, schedule: Q04DX003 (ip), vehicle: saline
[9] = endpoint: mean survival time, dose: 200.0 mg/kg/injection, schedule: Q01DX009 (ip), vehicle: saline with Tween-80
[10] = endpoint: mean survival time, dose: 400.0 mg/kg/injection, schedule: Q01DX009 (ip), vehicle: saline with Tween-80

Measured: T/C

CC(CNC1CCCCC1)OC(=O)c1ccc(N)cc1 (stereo not drawn)
inactive: endpoint: mean survival time, dose: 75.0 mg/kg/injection, schedule: Q01DX001 (ip), vehicle: saline 102 % of control

Nc1nc(=O)c2[nH]cnc2n1O
inactive: endpoint: mean survival time, dose: 12.5 mg/kg/injection, schedule: Q04DX003 (ip), vehicle: acetone 97 % of control | endpoint: mean survival time, dose: 16.5 mg/kg/injection, schedule: Q01DX009 (ip), vehicle: saline 102 % of control | endpoint: mean survival time, dose: 25.0 mg/kg/injection, schedule: Q01DX009 (ip), vehicle: saline 102 % of control | endpoint: mean survival time, dose: 25.0 mg/kg/injection, schedule: Q04DX003 (ip), vehicle: acetone 94 % of control | endpoint: mean survival time, dose: 50.0 mg/kg/injection, schedule: Q04DX003 (ip), vehicle: acetone 97 % of control | endpoint: mean survival time, dose: 55.0 mg/kg/injection, schedule: Q01DX009 (ip), vehicle: saline 118 % of control

C1=CSC(=C2SC=CS2)S1
inactive: [1] 95 % of control | [2] 102 % of control

CCOC(=O)/C=C(\C)Sc1ccc(Cl)cc1
inactive: endpoint: mean survival time, dose: 100.0 mg/kg/injection, schedule: Q04DX003 (ip), vehicle: alcohol 92 % of control | endpoint: mean survival time, dose: 200.0 mg/kg/injection, schedule: Q04DX003 (ip), vehicle: alcohol 87 % of control | endpoint: mean survival time, dose: 400.0 mg/kg/injection, schedule: Q04DX003 (ip), vehicle: alcohol 102 % of control

N#CCc1nc2ccccc2[nH]1
inactive: endpoint: mean survival time, dose: 25.0 mg/kg/injection, schedule: Q01DX009 (ip), vehicle: Klucel (hydroxypropylcellulose) (HPC) 98 % of control | endpoint: mean survival time, dose: 50.0 mg/kg/injection, schedule: Q01DX009 (ip), vehicle: Klucel (hydroxypropylcellulose) (HPC) 93 % of control

CC(COP(N)(=O)N(CCCl)CCCl)C(C)OCc1ccccc1 (stereo not drawn)
inactive: endpoint: mean survival time, dose: 15.62 mg/kg/injection, schedule: Q01DX001 (ip), vehicle: DMSO 101 % of control | endpoint: mean survival time, dose: 31.3 mg/kg/injection, schedule: Q01DX001 (ip), vehicle: DMSO 106 % of control | endpoint: mean survival time, dose: 62.5 mg/kg/injection, schedule: Q01DX001 (ip), vehicle: DMSO 101 % of control | endpoint: mean survival time, dose: 125.0 mg/kg/injection, schedule: Q01DX001 (ip), vehicle: DMSO 103 % of control | endpoint: mean survival time, dose: 250.0 mg/kg/injection, schedule: Q01DX001 (ip), vehicle: DMSO 95 % of control | endpoint: mean survival time, dose: 500.0 mg/kg/injection, schedule: Q01DX001 (ip), vehicle: DMSO 93 % of control

C=C(c1ccccc1)c1ccc(N(C)C)cc1
inactive: [1] 100 % of control | [2] 91 % of control | [3] 95 % of control

CN(C)C1C(c2ccccc2)S(=O)(=O)C1(C)C (stereo not drawn)
inactive: [4] 100 % of control | [5] 96 % of control | [6] 100 % of control | endpoint: mean survival time, dose: 200.0 mg/kg/injection, schedule: Q04DX003 (ip), vehicle: saline 101 % of control | [7] 100 % of control | endpoint: mean survival time, dose: 400.0 mg/kg/injection, schedule: Q04DX003 (ip), vehicle: saline 97 % of control

NC(=O)c1ncn(C2OC(CO)C(O)C2O)c1C(N)=O (stereo not drawn)
inactive: endpoint: mean survival time, dose: 12.5 mg/kg/injection, schedule: Q01DX005 (ip), vehicle: water 102 % of control | endpoint: mean survival time, dose: 25.0 mg/kg/injection, schedule: Q01DX005 (ip), vehicle: water 112 % of control | endpoint: mean survival time, dose: 50.0 mg/kg/injection, schedule: Q01DX005 (ip), vehicle: water 107 % of control | endpoint: mean survival time, dose: 100.0 mg/kg/injection, schedule: Q01DX005 (ip), vehicle: water 104 % of control | endpoint: mean survival time, dose: 200.0 mg/kg/injection, schedule: Q01DX005 (ip), vehicle: water 112 % of control

CC(C)C(NC(=O)C(CCCN=C(N)N)NC(=O)C(N)CCCCN)C(N)=O (stereo not drawn) (H-Lys-Arg-Val-NH2; configuration not given here)
inactive: endpoint: mean survival time, dose: 12.5 mg/kg/injection, schedule: Q01DX009 (ip), vehicle: water 101 % of control | endpoint: mean survival time, dose: 25.0 mg/kg/injection, schedule: Q01DX009 (ip), vehicle: water 101 % of control | endpoint: mean survival time, dose: 50.0 mg/kg/injection, schedule: Q01DX009 (ip), vehicle: water 94 % of control | endpoint: mean survival time, dose: 100.0 mg/kg/injection, schedule: Q01DX009 (ip), vehicle: water 97 % of control | endpoint: mean survival time, dose: 200.0 mg/kg/injection, schedule: Q01DX009 (ip), vehicle: water 95 % of control

Nc1c(O)cc(S(=O)(=O)O)c2ccccc12
inactive: endpoint: mean survival time, dose: 25.0 mg/kg/injection, schedule: Q04DX003 (ip), vehicle: saline 95 % of control | [8] 103 % of control | [5] 109 % of control

COc1ccc2c3csc4ccccc4c-3nc2c1
inactive: [1] 91 % of control

Cc1nc(-c2ccccc2)c(Cc2c(O)ccc3ccccc23)c(=O)[nH]1
inactive: [4] 97 % of control | [6] 100 % of control | [7] 100 % of control

CC(C)([NH-])C[NH-].O=C(O)CC(=O)O.[Pt+2]
inactive: endpoint: median survival time, dose: 20.0 mg/kg/injection, schedule: Q04DX003 (ip), vehicle: distilled water + Tween-80 104 % of control

O=C(O)C1Cc2nc[nH]c2CN1CO (stereo not drawn)
inactive: endpoint: mean survival time, dose: 12.5 mg/kg/injection, schedule: Q01DX009 (ip), vehicle: saline with Tween-80 100 % of control | endpoint: mean survival time, dose: 25.0 mg/kg/injection, schedule: Q01DX009 (ip), vehicle: saline with Tween-80 100 % of control and 102 % of control | endpoint: mean survival time, dose: 50.0 mg/kg/injection, schedule: Q01DX009 (ip), vehicle: saline with Tween-80 100 % of control | endpoint: mean survival time, dose: 100.0 mg/kg/injection, schedule: Q01DX009 (ip), vehicle: saline with Tween-80 104 % of control and 109 % of control | [9] 108 % of control | [10] 108 % of control and 109 % of control

COc1cc2c(c(OC)c1OC)-c1ccc(SC)c(=O)cc1[C@@H](NC1OCC(O)C(O)C1O)CC2 (stereo partly drawn)
inactive: endpoint: mean survival time, dose: 6.0 mg/kg/injection, schedule: Q01DX009 (ip), vehicle: other 102 % of control | endpoint: mean survival time, dose: 12.0 mg/kg/injection, schedule: Q01DX009 (ip), vehicle: other 120 % of control | endpoint: mean survival time, dose: 12.5 mg/kg/injection, schedule: Q01DX009 (ip), vehicle: other 106 % of control | endpoint: mean survival time, dose: 25.0 mg/kg/injection, schedule: Q01DX009 (ip), vehicle: other 119 % of control | endpoint: mean survival time, dose: 100.0 mg/kg/injection, schedule: Q01DX009 (ip), vehicle: other 88 % of control

N=C(N)c1ccc(OCCCCOc2ccc(NC(=O)Nc3ccc(S(=O)(=O)F)cc3Cl)cc2)cc1
inactive: endpoint: mean survival time, dose: 12.5 mg/kg/injection, schedule: Q01DX001 (ip), vehicle: saline with Tween-80 98 % of control | endpoint: mean survival time, dose: 25.0 mg/kg/injection, schedule: Q01DX001 (ip), vehicle: saline with Tween-80 98 % of control | endpoint: mean survival time, dose: 50.0 mg/kg/injection, schedule: Q01DX001 (ip), vehicle: saline with Tween-80 96 % of control

O=C(O)C(O)(c1ccccc1)C1CCCC1 (stereo not drawn)
inactive: [9] 109 % of control | [10] 112 % of control

CC(C)(C)CC(C)(C)c1ccc(OCCOc2ccc(NS(=O)(=O)c3ccc(N)cc3)cc2)cc1
inactive: endpoint: mean survival time, dose: 100.0 mg/kg/injection, schedule: Q01DX009 (ip), vehicle: Klucel (hydroxypropylcellulose) (HPC) 95 % of control | [1] 97 % of control | endpoint: mean survival time, dose: 200.0 mg/kg/injection, schedule: Q01DX009 (ip), vehicle: Klucel (hydroxypropylcellulose) (HPC) 96 % of control | [2] 97 % of control | endpoint: mean survival time, dose: 400.0 mg/kg/injection, schedule: Q01DX009 (ip), vehicle: Klucel (hydroxypropylcellulose) (HPC) 93 % of control | [3] 95 % of control

C1CCC(N=C(NC2CCCCC2)NC2CCCCC2)CC1
inactive: [1] 109 % of control | [2] 100 % of control

CSc1nc(SC)c2cnn(C3OC(CO)C(O)C3O)c2n1 (stereo not drawn)
inactive: endpoint: median survival time, dose: 3.12 mg/kg/injection, schedule: Q01DX005 (ip), vehicle: saline with Tween-80 95 % of control | endpoint: median survival time, dose: 6.25 mg/kg/injection, schedule: Q01DX005 (ip), vehicle: saline with Tween-80 100 % of control | endpoint: median survival time, dose: 12.5 mg/kg/injection, schedule: Q01DX005 (ip), vehicle: saline with Tween-80 102 % of control and 103 % of control | endpoint: median survival time, dose: 25.0 mg/kg/injection, schedule: Q01DX005 (ip), vehicle: saline with Tween-80 102 % of control and 101 % of control and 97 % of control | endpoint: median survival time, dose: 50.0 mg/kg/injection, schedule: Q01DX005 (ip), vehicle: saline with Tween-80 102 % of control and 101 % of control and 97 % of control | endpoint: median survival time, dose: 100.0 mg/kg/injection, schedule: Q01DX005 (ip), vehicle: saline with Tween-80 102 % of control and 95 % of control | endpoint: median survival time, dose: 200.0 mg/kg/injection, schedule: Q01DX005 (ip), vehicle: saline with Tween-80 93 % of control and 95 % of control

COC(=O)C1(C)CCCC2(C)C1CCC13C=C(C(C)C)C(CC1C(=O)O)CC23 (stereo not drawn)
inactive: [1] 97 % of control | [2] 101 % of control | [3] 93 % of control

Cc1ccc(S(=O)(=O)/C=C(\I)c2ccc([N+](=O)[O-])cc2)cc1
inactive: [8] 96 % of control | [5] 87 % of control
